Experimental data from ChEMBL document CHEMBL1150776, “Naturally occurring pentacyclic triterpenes as inhibitors of glycogen phosphorylase: synthesis, structure-activity relationships, and X-ray crystallographic studies” (J Med Chem, 2008).
The source made the active and inactive calls. The rule behind the calls is not given here.

What follows are compounds tested against T1, Glycogen phosphorylase, muscle form (Oryctolagus cuniculus) (UniProt P00489) (assay: (§1) Inhibition of rabbit muscle glycogen phosphorylase A assessed as phosphate release from glucose-1-phosphate).
T1 sequence (whole entry): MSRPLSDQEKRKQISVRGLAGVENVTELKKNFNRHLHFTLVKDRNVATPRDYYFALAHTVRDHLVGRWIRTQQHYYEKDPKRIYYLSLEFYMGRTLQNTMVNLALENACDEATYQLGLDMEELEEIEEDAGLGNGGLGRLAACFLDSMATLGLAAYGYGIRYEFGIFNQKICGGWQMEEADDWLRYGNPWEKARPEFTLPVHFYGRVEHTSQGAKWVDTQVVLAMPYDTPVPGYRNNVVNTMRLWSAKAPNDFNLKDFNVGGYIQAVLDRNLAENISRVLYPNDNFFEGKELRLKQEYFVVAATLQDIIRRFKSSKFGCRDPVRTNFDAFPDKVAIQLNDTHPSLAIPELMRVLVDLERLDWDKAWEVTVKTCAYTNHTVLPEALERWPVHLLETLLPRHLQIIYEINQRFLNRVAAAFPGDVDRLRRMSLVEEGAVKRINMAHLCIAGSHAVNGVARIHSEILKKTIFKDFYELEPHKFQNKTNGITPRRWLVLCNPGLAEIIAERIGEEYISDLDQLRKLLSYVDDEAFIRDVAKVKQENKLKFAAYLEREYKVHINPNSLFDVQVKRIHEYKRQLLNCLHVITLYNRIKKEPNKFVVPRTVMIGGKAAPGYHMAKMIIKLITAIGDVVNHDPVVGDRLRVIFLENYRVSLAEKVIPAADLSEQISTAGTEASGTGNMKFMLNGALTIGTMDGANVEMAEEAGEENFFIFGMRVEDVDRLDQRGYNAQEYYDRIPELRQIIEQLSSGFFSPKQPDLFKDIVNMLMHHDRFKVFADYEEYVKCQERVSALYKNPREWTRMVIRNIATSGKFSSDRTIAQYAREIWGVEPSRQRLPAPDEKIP
In the case of `C[C@H]1[C@H](C)CC[C@]2(C(=O)O)CC[C@]3(C)C(=CC[C@@H]4[C@@]5(C)C[C@@H](O)[C@H](O)[C@@](C)(CO)[C@@H]5[C@H](O)C[C@]43C)[C@H]12`, the Activity is reported as “inactive”.
`C[C@H]1[C@H](C)CC[C@]2(C(=O)O[C@@H]3O[C@H](CO[C@@H]4O[C@H](CO)[C@@H](O[C@@H]5O[C@@H](C)[C@@H](O)[C@H](O)[C@@H]5O)[C@H](O)[C@H]4O)[C@@H](O)[C@H](O)[C@H]3O)CC[C@]3(C)C(=CC[C@@H]4[C@@]5(C)C[C@@H](O)[C@H](O)[C@@](C)(CO)[C@@H]5[C@H](O)C[C@]43C)[C@H]12` was tested, and the Activity was “inactive”.

The compounds below were run against T2, Glycogen phosphorylase, muscle form (Oryctolagus cuniculus, UniProt P00489) (assay: as §1).
T2 sequence (P00489 whole entry): T1 sequence (whole entry)
For `CC1(C)[C@@H](O[C@H]2O[C@H](C(=O)O)[C@@H](O)[C@H](O)[C@H]2O[C@@H]2O[C@H](C(=O)O)[C@@H](O)[C@H](O)[C@H]2O)CC[C@]2(C)[C@H]3C(=O)C=C4[C@@H]5C[C@@](C)(C(=O)O)CC[C@]5(C)CC[C@@]4(C)[C@]3(C)CC[C@@H]12` [GLYCYRRHIZIN], the IC50 was 822 µM.
Work on `CC1(C)[C@@H](O)CC[C@]2(C)[C@H]3C(=O)C=C4[C@@H]5C[C@@](C)(C(=O)O)CC[C@]5(C)CC[C@@]4(C)[C@]3(C)CC[C@@H]12` [ENOXOLONE] yielded an IC50 of 66 µM.
`C[C@H]1[C@H](C)CC[C@]2(C(=O)O)CC[C@]3(C)C(=CC[C@@H]4[C@@]5(C)CCC(=O)C(C)(C)[C@@H]5CC[C@]43C)[C@H]12` [URSONIC ACID] showed an IC50 of 57 µM.
Compound `C=C(C)[C@@H]1CC[C@]2(C(=O)O)CC[C@]3(C)[C@H](CC[C@@H]4[C@@]5(C)CC[C@H](O)[C@@](C)(CO)[C@@H]5CC[C@]43C)[C@@H]12` has an IC50 of 16 µM.
Compound `C=C(C)[C@@H]1CC[C@]2(CO)CC[C@]3(C)[C@H](CC[C@@H]4[C@@]5(C)CC[C@H](O)C(C)(C)[C@@H]5CC[C@]43C)[C@@H]12` [BETULIN] has an IC50 of 17 µM.
`C[C@H]1[C@H](C)CC[C@]2(C(=O)O[C@@H]3O[C@H](CO)[C@@H](O)[C@H](O)[C@H]3O)CC[C@]3(C)C(=CC[C@@H]4[C@@]5(C)C[C@@H](O)[C@H](O)C(C)(C)[C@@H]5CC[C@]43C)[C@H]12` showed an IC50 of 106 µM.
Compound `C[C@H]1[C@H](C)CC[C@]2(C(=O)O[C@@H]3O[C@H](CO)[C@@H](O)[C@H](O)[C@H]3O)CC[C@]3(C)C(=CC[C@@H]4[C@@]5(C)CC[C@H](O)C(C)(C)[C@@H]5CC[C@]43C)[C@H]12` has an IC50 of 97 µM.
`C=C(C)[C@@H]1CC[C@]2(C(=O)O)CC[C@]3(C)[C@H](CC[C@@H]4[C@@]5(C)CC[C@H](O)C(C)(C)[C@@H]5CC[C@]43C)[C@@H]12` [BETULINIC ACID] was tested, and the IC50 was 43 µM.
For `C[C@H]1[C@H](C)CC[C@]2(C(=O)O)CC[C@]3(C)C(=CC[C@@H]4[C@@]5(C)CC[C@@H](O)C(C)(C)[C@@H]5CC[C@]43C)[C@H]12`, the IC50 was 19 µM.
In the case of `CC1(C)[C@@H](O)CC[C@]2(C)[C@H]3CC=C4[C@@H]5C[C@@](C)(C(=O)O)CC[C@]5(C)CC[C@@]4(C)[C@]3(C)CC[C@@H]12`, the IC50 is reported as 82 µM.
For `CC1(C)CC[C@]2(C(=O)O[C@@H]3O[C@H](CO)[C@@H](O)[C@H](O)[C@H]3O)CC[C@]3(C)C(=CC[C@@H]4[C@@]5(C)CC[C@H](O)C(C)(C)[C@@H]5CC[C@]43C)[C@@H]2C1`, the IC50 was 293 µM.
`C[C@H]1[C@H](C)CC[C@]2(C(=O)O)CC[C@]3(C)C(=CC[C@@H]4[C@@]5(C)CC[C@H](O)C(C)(C)[C@@H]5CC[C@]43C)[C@H]12` [URSOLIC ACID] showed an IC50 of 9 µM.

These compounds were tested against T1, Glycogen phosphorylase, muscle form (Oryctolagus cuniculus) (assay: Inhibition of rabbit muscle glycogen phosphorylase A assessed as phosphate release from glucose-1-phosphate at 2000 uM).
In the case of `C[C@H]1[C@H](C)CC[C@]2(C(=O)O[C@@H]3O[C@H](CO[C@@H]4O[C@H](CO)[C@@H](O[C@@H]5O[C@H](C)[C@H](O)[C@@H](O)[C@H]5O)[C@H](O)[C@H]4O)[C@@H](O)[C@H](O)[C@H]3O)CC[C@]3(C)C(=CC[C@@H]4[C@@]5(C)C[C@@H](O)[C@H](O)[C@@](C)(CO)[C@@H]5CC[C@]43C)[C@H]12`, the Activity is reported as “inactive”.
